{"source": "patent US5180672A", "about": "“Ascorbate oxidase isolated from Acremonium sp. HI-25 ferm BP-3124” (Asahi Kasei Kogyo Kabushiki Kaisha, priority 1990, dated 1993)", "key": {"[1]": {"test_system": "ascorbate oxidase produced by Acremonium sp. HI-25", "format": "biochemical", "settings": "for residual relative activities (%): 10 min, 1000 µM"}, "[2]": {"target": "T1, ascorbate oxidase from cucumber (Toyobo ASCORBATE OXIDASE, EC 1.10.3.3) (Cucumis sativus, UniProt P14133)", "T1 sequence (P14133 34-587)": "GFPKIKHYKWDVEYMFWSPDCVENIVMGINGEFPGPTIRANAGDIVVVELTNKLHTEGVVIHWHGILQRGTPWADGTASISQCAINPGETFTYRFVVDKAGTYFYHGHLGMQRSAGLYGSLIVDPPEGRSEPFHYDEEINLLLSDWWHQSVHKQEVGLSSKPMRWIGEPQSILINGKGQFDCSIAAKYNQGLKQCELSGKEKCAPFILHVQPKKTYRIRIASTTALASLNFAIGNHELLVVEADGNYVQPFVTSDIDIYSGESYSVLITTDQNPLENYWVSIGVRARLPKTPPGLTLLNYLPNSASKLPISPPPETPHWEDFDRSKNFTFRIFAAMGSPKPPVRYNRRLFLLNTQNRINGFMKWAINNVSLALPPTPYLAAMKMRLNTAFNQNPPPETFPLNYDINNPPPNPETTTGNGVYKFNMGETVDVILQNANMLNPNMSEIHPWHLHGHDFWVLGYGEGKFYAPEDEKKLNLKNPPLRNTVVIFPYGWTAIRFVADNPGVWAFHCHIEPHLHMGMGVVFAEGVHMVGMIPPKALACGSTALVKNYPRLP", "settings": "reference J. Biochem. 64, 189 (1968); Toyobo catalog; read-out: K m (L-ascorbate); cited from earlier work"}, "[3]": {"test_system": "ascorbate oxidase from Myrothecium verrucaria, hypha", "settings": "at 1 mM; printed as effective (50% at 1 mM); cited from earlier work"}, "[4]": {"test_system": "ascorbate oxidase from Acremonium sp. HI-25", "settings": "NaN3 0.2%, 2880 min"}}, "note": "Read-outs that look alike come from different tables or passages of the source."}
{"smiles": "O=C(O)CN(CCN(CC(=O)O)CC(=O)O)CC(=O)O", "note": "[EDTA]", "values": [{"measurement": "residual relative activities (%)", "setting": "[1]", "value": 106, "unit": "%"}]}
{"smiles": "O=C1O[C@H]([C@@H](O)CO)C(O)=C1O", "note": "[L-ascorbate]", "values": [{"measurement": "Km", "setting": "[2]", "value": 250, "unit": "µM"}]}
{"smiles": "[Na+].[Na+].[S-2]", "note": "[Na2 S, sodium sulfide]", "values": [{"measurement": "residual relative activities (%)", "setting": "[1]", "value": 3, "unit": "%"}]}
{"smiles": "CCN(CC)C(=S)[S-].[Na+]", "note": "[sodium N,N-diethyldithiocarbamate]", "values": [{"measurement": "inhibition by inhibitor", "setting": "[3]", "value": 50, "unit": "%"}, {"measurement": "residual relative activities (%)", "setting": "[1]", "value": 101, "unit": "%"}]}
{"smiles": "[N-]=[N+]=[N-]", "note": "[sodium azide]", "values": [{"measurement": "relative activities, 100 as buffers only", "setting": "[4]; PIPES buffer with 0.1 % BSA", "value": 78.4, "unit": "%"}, {"measurement": "relative activities, 100 as buffers only", "setting": "[4]; Pi buffer with 0.1 % BSA", "value": 76.2, "unit": "%"}, {"measurement": "relative activities, 100 as buffers only", "setting": "[4]; Tris buffer with 0.1 % BSA", "value": 78.6, "unit": "%"}, {"measurement": "inactivation by inhibitor (in words)", "setting": "[1]", "value": "inactivated"}]}
